Data taken from article PMC6527222 (PLoS ONE, 2019).
“And” between values parts separate entries of the source, which are not always exact repeats. Equal values may be shown once.

Experiments:
JB6 P+ cells [1] = assay: Anchorage-independent growth assay in soft agar (EGF-induced JB6 P+ colony formation); type: cell-based, mouse
Experimental: Ten ng/mL EGF was used to promote the anchorage-independent growth of JB6 cells. […] Plates were incubated at 37°C, 5% CO2 for 14 days. Colonies with greater than ten cells were counted manually under a microscope. […] Normalization allowed for comparison of data over a range of JB6 P+ cell cultures, passages, and experimental time for the shRNA studies, as well as control for variation in the EGF response, and importantly allowed for a direct comparison to all concentration-response experiments including the toxicity assays. […] All group sizes were determined via previous studies to provide statistically meaningful data. In the soft agar assays, key results were repeated with different JB6 P+ cells to confirm the results. Similarly, the shRNA studies were conducted with three independent concentration-response curves with different JB6 P+ cell stocks. […] For two sample comparisons a t-test was utilized, and when comparing multiple samples a One-, Two-, or Three-Factor ANOVA followed by Tukey-Kramer post hoc test was utilized depending on the data. For all tests, statistical difference was donated when p < 0.05. […] The I[…]*PSD is expressed in x-axis units (log [M]) as is an IC50 and it represents the first concentration where it is expected to observe a statistical decrease in the measured signal. […] Using the formula provided by GraphPad Prism or a straight line for the point-to-point graphs, the X-axis value for point Y was determined. The error is ascribed to this measurement via adding and subtracting the pooled standard deviation (PSD) to/from point Y generating point Y ± PSD. The two new points were then transformed to the X-axis units as was done for point Y creating an asymmetric error in sigmoidal plots. When the error was asymmetric, the larger error value was chosen to err on the conservative side. See S1 Fig for a pictoral explination of the method. The data is presented as I[…]*PSD ± error.

JB6 P+ cells [2] = assay: Modified seven-day soft agar assay in shRNA lentivirus infected JB6 P+ cells; type: cell-based, mouse; conditions: for IC50: Mus musculus
Experimental: Knockdown of the β2-AR via the Adrb2 shRNA lentivirus was examined via seeding 1x10^4 JB6 P+ cells/well of a 6-well plate in standard growth media (see above). 24 hr after seeding, the growth media was removed from attached cells and replaced with 2 ml EMEM containing 4% heat-inactivated FBS without antibiotics and […] polybrene. 1.5 ml lentiviral shRNA stocks of either Adrb2 or scrambled control were added to appropriate wells and plates were centrifuged at 1,000 g at room temperature for 1 hr. Following centrifugation, media was replaced with 3 ml EMEM lacking antibiotics and grown at 37°C. After 2, 3, 7, and 10 days of growth, cells were trypsinized, collected and centrifuged at 300g for 5 min. Cells were washed with 1 ml PBS, and RNA was extracted using Qiagen’s RNeasy Mini kit. RNA was reverse transcribed into cDNA using Applied Biosystems cDNA reverse transcription kit (Invitrogen) and stored at -20°C for future use.
β2-AR shRNA lentivirus infected JB6 P+ cells were utilized in modified anchorage-independent growth assays in soft agar. The procedure was shortened to seven days because the shRNA-mediated β2-AR knockdown persisted up to ten days. Infection of the cells occurred as described in the verification of effective shRNA-mediated β2-AR knockdown, and the cells were grown for three days, then they were added to the agar as described in the anchorage-independent growth assays in soft agar section. The colonies were counted after seven days in culture; thus, matching the ten days of β2-AR knockdown.

β2-AR = test system: β2-AR; set-up: method as in as printed in each cell (43-46, 48-54, 56-58); conditions: as described in the references; ref (43-46, 48-54, 56-58); cited from earlier work

IC50 (JB6 P+ cells [2]; 168 h, independent experiments 1-3, seven days, read-out: ardb2 shRNA Mean logIC50 (converted)): 718 nM
IC50 (JB6 P+ cells [2]; 168 h, scrambled control shRNA, three experiments combined (Fig 6B), seven days, read-out: LogIC50 (converted)): 813 nM
IC50 (JB6 P+ cells [2]; 168 h, β2-AR-targeted shRNA, three experiments combined (Fig 6B), seven days, read-out: LogIC50 (converted)): 1000 nM
IC50 (JB6 P+ cells [2]; line Mean, read-out: Scrambled shRNA Mean logIC50, mean of three experiments (converted)): 714 nM
IC50 (JB6 P+ cells [2]; line Mean, read-out: ardb2 shRNA Mean logIC50, mean of three experiments (converted)): 979 nM
SMILES: COc1ccccc1OCCNCC(O)COc1cccc2[nH]c3ccccc3c12 (stereo not shown) [Carvedilol]
Soft Agar Assay Log IC50 (JB6 P+ cells [1]; 10 ng/mL EGF, 14 days, negative log value): -6.61 ± 0.06 log [M]
IC50 (JB6 P+ cells [1]; Mus musculus, 336 h, 10 ng/mL EGF, 14 days, negative log value, read-out: Soft Agar Assay Log IC50 (converted)): 251 nM
Emax (JB6 P+ cells [1]; Mus musculus, efficacy of inhibition of colony formation, reported if non-toxic): 94.7 ± 4.31%
ardb2 shRNA Mean logIC50 (JB6 P+ cells [2]; independent experiments 1-3, seven days): -5.965 log [M] and -5.917 log [M]
Pharmacological property at β2-AR (β2-AR): Biased agonist/ partial ERK agonist [43, 44]
